Reference: ChEMBL document CHEMBL3046363, “Synthesis, fungicidal, and insecticidal activities of beta-Methoxyacrylate-containing N-acetyl pyrazoline derivatives” (J Agric Food Chem, 2008)
Activity calls are given as the source filed them. The rule behind the calls is not given here.

Key:
[1] = system: Podosphaera fuliginea; assay: In vivo fungicidal activity against Podosphaera fuliginea infected cucumber plants assessed as inhibition of disease symptoms at 200 ug/ml treated one day prior to fungal spore inoculation measured after one week; type: functional
[2] = system: Pseudoperonospora cubensis; assay: In vivo fungicidal activity against Pseudoperonospora cubensis infected in cucumber plants assessed as inhibition of disease symptoms at 200 ug/ml treated one day prior to fungal spore inoculation measured after one week; type: functional
[3] = system: Botrytis cinerea; assay: In vivo fungicidal activity against Botryotinia fuckeliana infected in cucumber plants assessed as inhibition of disease symptoms at 200 ug/ml treated one day prior to fungal spore inoculation measured after one week; type: functional, organism-based
[4] = system: Rhizoctonia solani; assay: In vivo fungicidal activity against Rhizoctonia solani infected in cucumber plants assessed as inhibition of disease symptoms at 200 ug/ml treated one day prior to fungal spore inoculation measured after one week; type: functional, organism-based
[5] = system: Mythimna separata; assay: In vivo insecticidal activity against Mythimna separata (Oriental armyworm) assessed as mortality at 500 ug/ml after 72 hr; type: functional
[6] = system: Tetranychus cinnabarinus; assay: In vivo insecticidal activity against Tetranychus cinnabarinus (carmine spider mite) assessed as mortality at 500 ug/ml after 72 hr; type: functional
[7] = system: Aphis medicaginis; assay: In vivo insecticidal activity against Aphis medicaginis assessed as mortality at 1 g/l after 72 hr; type: functional, organism-based
[8] = system: Nilaparvata lugens; assay: In vivo insecticidal activity against fifth instar larval stage of Nilaparvata lugens (brown planthopper) in […] rice seedlings assessed as mortality at 1 g/l treated for 5 secs before larval infestation measured after 72 hr; type: functional, organism-based

Structure (SMILES)	inhibition in vivo at 200 µg/mL [1] [%]	inhibition in vivo at 200 µg/mL [2] [%]	inhibition [3]	inhibition [4]	mortality at 500 µg/mL [5] [%]	mortality at 500 µg/mL [6] [%]	mortality [7]	mortality [8]
CO/C=C(/C(=O)OC)c1ccccc1COc1ccccc1C1=NN(C(C)=O)C(c2cccc(OC)c2)C1 (stereo not given)	< 60	< 60	inactive	inactive				
CO/C=C(/C(=O)OC)c1ccccc1COc1ccc(C2=NN(C(C)=O)C(c3ccccc3F)C2)cc1 (stereo not given)	< 60	< 60	inactive	inactive				
CCOc1ccc(C2CC(c3cccc(OCc4ccccc4/C(=C\OC)C(=O)OC)c3)=NN2C(C)=O)cc1 (stereo not given)	< 60	100	inactive	inactive				
CO/C=C(/C(=O)OC)c1ccccc1COc1cccc(C2=NN(C(C)=O)C(c3ccccc3OC)C2)c1 (stereo not given)	≥ 80	≥ 80	inactive	inactive				
CO/C=C(/C(=O)OC)c1ccccc1COc1ccc(C2=NN(C(C)=O)C(c3ccc(C)cc3)C2)cc1 (stereo not given)	< 60	< 60	inactive	inactive				
CO/C=C(/C(=O)OC)c1ccccc1COc1ccc(C2=NN(C(C)=O)C(c3cccc(OC)c3)C2)cc1 (stereo not given)	< 60	≥ 70	inactive	inactive				
CCOc1ccc(C2CC(c3ccc(OCc4ccccc4/C(=C\OC)C(=O)OC)cc3)=NN2C(C)=O)cc1 (stereo not given)	< 60	< 60	inactive	inactive				
CO/C=C(/C(=O)OC)c1ccccc1COc1ccc(C2=NN(C(C)=O)C(c3ccc(C)c(C)c3)C2)cc1 (stereo not given)	< 60	< 60	inactive	inactive				
CCc1ccc(C2CC(c3ccccc3OCc3ccccc3/C(=C\OC)C(=O)OC)=NN2C(C)=O)cc1 (stereo not given)	< 60	100	inactive	inactive	100	< 60	inactive	inactive
CO/C=C(/C(=O)OC)c1ccccc1COc1ccccc1C1=NN(C(C)=O)C(c2ccc(C)c(C)c2)C1 (stereo not given)	< 60	< 60	inactive	inactive				
CO/C=C(/C(=O)OC)c1ccccc1COc1ccc(C2=NN(C(C)=O)C(c3ccc(F)cc3)C2)cc1 (stereo not given)	< 60	< 60	inactive	inactive				
CO/C=C(/C(=O)OC)c1ccccc1COc1ccccc1C1=NN(C(C)=O)C(c2ccc(Br)cc2)C1 (stereo not given)	< 60	< 60	inactive	inactive				
CO/C=C(/C(=O)OC)c1ccccc1COc1ccc(C2=NN(C(C)=O)C(c3cc(OC)c(OC)c(OC)c3)C2)cc1 (stereo not given)	< 60	< 60	inactive	inactive				
CO/C=C(/C(=O)OC)c1ccccc1COc1cccc(C2=NN(C(C)=O)C(c3ccccc3Br)C2)c1 (stereo not given)	< 60	100	inactive	inactive				
CO/C=C(/C(=O)OC)c1ccccc1COc1cccc(C2=NN(C(C)=O)C(c3ccc(C(C)(C)C)cc3)C2)c1 (stereo not given)	< 60	≥ 80	inactive	inactive	100	≥ 90	inactive	inactive
CO/C=C(/C(=O)OC)c1ccccc1COc1ccc(C2=NN(C(C)=O)C(c3ccc(OC)cc3)C2)cc1 (stereo not given)	< 60	< 60	inactive	inactive				
CO/C=C(/C(=O)OC)c1ccccc1COc1ccccc1C1=NN(C(C)=O)C(c2ccc(Cl)c(Cl)c2)C1 (stereo not given)	< 60	< 60	inactive	inactive				
CO/C=C(/C(=O)OC)c1ccccc1COc1ccc(C2=NN(C(C)=O)C(c3cccs3)C2)cc1 (stereo not given)	≥ 60	≥ 70	inactive	inactive				
